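Results reflect a 48-hour exposure of cells in 96-well plates to compound at five concentrations. Abbreviation: GI50, concentration required for 50% inhibition of growth.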 Activity calls are given as the source filed them. No stated cut-off is given here; in the data, active = GI50 up to about 1.1 µM and inactive = higher.
Assays:
Experiment in all cases: growth of human tumour cells (NCI), 48 h
A498 = system: A498
NCI/ADR-RES = system: NCI/ADR-RES
HCC 2998 = system: HCC 2998
Malme-3M = system: Malme-3M
DU-145 = system: DU-145
MDA-MB-231 = system: MDA-MB-231
KM12 = system: KM12
SF-268 = system: SF-268
MOLT-4 = system: MOLT-4
RPMI-8226 = system: RPMI-8226
UACC-257 = system: UACC-257
UO-31 = system: UO-31
SK-MEL-5 = system: SK-MEL-5
IGROV-1 = system: IGROV-1
SW-620 = system: SW-620
786-0 = system: 786-0
MDA-MB-435 = system: MDA-MB-435
SF-539 = system: SF-539
HOP-62 = system: HOP-62
LOX IMVI = system: LOX IMVI

| SMILES | GI50 (A498) | GI50 (NCI/ADR-RES) | GI50 (HCC 2998) | GI50 (Malme-3M) | GI50 (DU-145) | GI50 (MDA-MB-231) | GI50 (KM12) | GI50 (SF-268) | GI50 (MOLT-4) | GI50 (RPMI-8226) | GI50 (UACC-257) | GI50 (UO-31) | GI50 (SK-MEL-5) | GI50 (IGROV-1) | GI50 (SW-620) | GI50 (786-0) | GI50 (MDA-MB-435) | GI50 (SF-539) | GI50 (HOP-62) | GI50 (LOX IMVI) |
| --- | --- | --- | --- | --- | --- | --- | --- | --- | --- | --- | --- | --- | --- | --- | --- | --- | --- | --- | --- | --- |
| CNC(=O)N(CCC#N)CCN(C(=O)N(C)C)c1ccccc1 | > 100 µM (inactive) | > 100 µM (inactive) | > 100 µM (inactive) | > 100 µM (inactive) | > 100 µM (inactive) | > 100 µM (inactive) | > 100 µM (inactive) | > 100 µM (inactive) | > 100 µM (inactive) | > 100 µM (inactive) | > 100 µM (inactive) | > 100 µM (inactive) | > 100 µM (inactive) | > 100 µM (inactive) | > 100 µM (inactive) | > 100 µM (inactive) | > 100 µM (inactive) | > 100 µM (inactive) | > 100 µM (inactive) | > 100 µM (inactive) |
| CC(=O)Nn1c(Cc2ccc(Cl)cc2)nn(C)c1=O | > 100 µM (inactive) | > 100 µM (inactive) | > 100 µM (inactive) | > 100 µM (inactive) | > 100 µM (inactive) | > 100 µM (inactive) | > 100 µM (inactive) | > 100 µM (inactive) | > 100 µM (inactive) | > 100 µM (inactive) | > 100 µM (inactive) | > 100 µM (inactive) | > 100 µM (inactive) | > 100 µM (inactive) | > 100 µM (inactive) | > 100 µM (inactive) | > 100 µM (inactive) | > 100 µM (inactive) | > 100 µM (inactive) | > 100 µM (inactive) |
| COC(=O)c1cc2c(cc1C(=O)OC)[C@@]1(C)CCCC(C)(C)C1CC2 (some centres undefined) | 15.6 µM (inactive) | 16.3 µM (inactive) | 17.4 µM (inactive) | 1.22 µM (inactive) | 14.1 µM (inactive) | 17.3 µM (inactive) | 15.2 µM (inactive) | 13.9 µM (inactive) | 15.1 µM (inactive) | 10.7 µM (inactive) | 19.5 µM (inactive) | 17.8 µM (inactive) | 16.2 µM (inactive) | 10.4 µM (inactive) | 18.7 µM (inactive) | 19.5 µM (inactive) | 30.2 µM (inactive) | 22 µM (inactive) | 23.8 µM (inactive) | 18.1 µM (inactive) |
| COc1ccc(C(=O)NC2=C(Cl)C(=O)c3ccccc3C2=O)cc1 | 14.6 µM (inactive) | 2.07 µM (inactive) | 4.49 µM (inactive) | 1.48 µM (inactive) | 3.86 µM (inactive) | 2.36 µM (inactive) | 1.07 µM (active) | 4.69 µM (inactive) | 0.955 µM (active) | 0.579 µM (active) | 1.71 µM (inactive) | 1.9 µM (inactive) | 1.58 µM (inactive) | 2.52 µM (inactive) | 1.1 µM (active) | 5.36 µM (inactive) | 2.22 µM (inactive) | 1.66 µM (inactive) | 18 µM (inactive) | 2.3 µM (inactive) |
| CCOC(=O)Cc1nc2c(N)ncnc2n1C1OC(COC(C)=O)C(OC(C)=O)C1OC(C)=O (centres undefined) | > 100 µM (inactive) | > 100 µM (inactive) | > 100 µM (inactive) | > 100 µM (inactive) | > 100 µM (inactive) | > 100 µM (inactive) | > 100 µM (inactive) | > 100 µM (inactive) | > 100 µM (inactive) | > 100 µM (inactive) | > 100 µM (inactive) | > 100 µM (inactive) | > 100 µM (inactive) | > 100 µM (inactive) | > 100 µM (inactive) | > 100 µM (inactive) | > 100 µM (inactive) | > 100 µM (inactive) | > 100 µM (inactive) | > 100 µM (inactive) |
| COc1ccc(/C(C#N)=C/c2ccc(OC)c(OC)c2)cc1 | > 100 µM (inactive) | > 100 µM (inactive) | 59 µM (inactive) | > 100 µM (inactive) | > 100 µM (inactive) | > 100 µM (inactive) | > 100 µM (inactive) | > 100 µM (inactive) | > 100 µM (inactive) | > 100 µM (inactive) | > 100 µM (inactive) | > 100 µM (inactive) | > 100 µM (inactive) | > 100 µM (inactive) | > 100 µM (inactive) | > 100 µM (inactive) | 83.4 µM (inactive) | > 100 µM (inactive) | > 100 µM (inactive) | > 100 µM (inactive) |
| [O-][n+]1onc(-c2ccccc2)c1-c1no[n+]([O-])c1-c1c(-c2ccccc2)no[n+]1[O-] | 13.9 µM (inactive) | 3.98 µM (inactive) | 74.1 µM (inactive) | 20.4 µM (inactive) | 9.89 µM (inactive) | 15.8 µM (inactive) | 7.43 µM (inactive) | 12.6 µM (inactive) | 3.56 µM (inactive) | 3.03 µM (inactive) | 13.1 µM (inactive) | 7.4 µM (inactive) | 14.8 µM (inactive) | 8.83 µM (inactive) | 4.1 µM (inactive) | 8.93 µM (inactive) | 2.34 µM (inactive) | 21 µM (inactive) | 14.9 µM (inactive) | 2.82 µM (inactive) |
| CN(N)/N=N/c1[nH]cnc1C(N)=O | 39.1 µM (inactive) | 5.35 µM (inactive) | 3.3 µM (inactive) | 4.55 µM (inactive) | 5.57 µM (inactive) | 3.22 µM (inactive) | 23.7 µM (inactive) | 5.52 µM (inactive) | 1.23 µM (inactive) | 3.36 µM (inactive) | 54.2 µM (inactive) | 4 µM (inactive) | 37.7 µM (inactive) | 9.93 µM (inactive) | 9.75 µM (inactive) | 12.1 µM (inactive) | 25.2 µM (inactive) | 13.7 µM (inactive) | 48.9 µM (inactive) | 1.65 µM (inactive) |
| COc1cc(O)c(/C=N/N=C(\N)NO)c(OC)c1 | > 10 µM (inactive) | 5.04 µM (inactive) | > 10 µM (inactive) | > 10 µM (inactive) | 6.24 µM (inactive) | > 10 µM (inactive) | 8.18 µM (inactive) | > 10 µM (inactive) | – | > 10 µM (inactive) | > 10 µM (inactive) | > 10 µM (inactive) | > 10 µM (inactive) | > 10 µM (inactive) | > 10 µM (inactive) | > 10 µM (inactive) | > 10 µM (inactive) | > 10 µM (inactive) | 9.93 µM (inactive) | 7.6 µM (inactive) |
| CC(=O)Oc1ccccc1C(=O)Nc1ncc([N+](=O)[O-])s1 [NITAZOXANIDE] | 56.2 µM (inactive) | 10.3 µM (inactive) | 13 µM (inactive) | 11.1 µM (inactive) | 20.1 µM (inactive) | 21.8 µM (inactive) | 22 µM (inactive) | 14.9 µM (inactive) | > 100 µM (inactive) | 10.3 µM (inactive) | 17.2 µM (inactive) | 26 µM (inactive) | 11.9 µM (inactive) | 16.3 µM (inactive) | 33.1 µM (inactive) | 26.7 µM (inactive) | 22.8 µM (inactive) | 24.8 µM (inactive) | 22.3 µM (inactive) | 21.8 µM (inactive) |
| Nc1n[c-](N)[n+](=O)c(N)c1NCO | > 100 µM (inactive) | > 100 µM (inactive) | > 100 µM (inactive) | > 100 µM (inactive) | > 100 µM (inactive) | > 100 µM (inactive) | > 100 µM (inactive) | > 100 µM (inactive) | > 100 µM (inactive) | > 100 µM (inactive) | > 100 µM (inactive) | > 100 µM (inactive) | > 100 µM (inactive) | > 100 µM (inactive) | > 100 µM (inactive) | > 100 µM (inactive) | > 100 µM (inactive) | > 100 µM (inactive) | > 100 µM (inactive) | > 100 µM (inactive) |
| COc1ccc(N2C(=O)/C(=C/c3ccc(N(CCC#N)CCC#N)cc3C)N=C2c2cc([N+](=O)[O-])ccc2Cl)cc1 | 5.41 µM (inactive) | > 10 µM (inactive) | 4.68 µM (inactive) | 27 µM (inactive) | 6.34 µM (inactive) | 12.6 µM (inactive) | 6.52 µM (inactive) | 11 µM (inactive) | 4.73 µM (inactive) | 4.18 µM (inactive) | 46.3 µM (inactive) | 5.19 µM (inactive) | 5.43 µM (inactive) | 19.7 µM (inactive) | 4.55 µM (inactive) | 4.43 µM (inactive) | 1.96 µM (inactive) | 3.37 µM (inactive) | 5.46 µM (inactive) | 6.43 µM (inactive) |
| c1ccc([P+](CCCCCCCC[P+](c2ccccc2)(c2ccccc2)c2ccccc2)(c2ccccc2)c2ccccc2)cc1 | > 31.8 µM (inactive) | > 100 µM (inactive) | 21.3 µM (inactive) | 16.4 µM (inactive) | 30 µM (inactive) | 7.13 µM (inactive) | 1.52 µM (inactive) | 3.5 µM (inactive) | 10.2 µM (inactive) | 1.87 µM (inactive) | 0.92 µM (active) | > 100 µM (inactive) | 8.05 µM (inactive) | 2.4 µM (inactive) | 6.81 µM (inactive) | 16.6 µM (inactive) | 4.92 µM (inactive) | 2.37 µM (inactive) | 3.64 µM (inactive) | 4.2 µM (inactive) |
| CCOS(=O)(=O)c1ccc(-c2c3nc(c(-c4ccc(S(=O)(=O)OCC)cc4)c4ccc([nH]4)c(-c4ccc(S(=O)(=O)OCC)cc4)c4nc(c(-c5ccc(S(=O)(=O)OCC)cc5)c5ccc2[nH]5)C=C4)C=C3)cc1 | > 31.6 µM (inactive) | > 31.6 µM (inactive) | > 31.6 µM (inactive) | 17.7 µM (inactive) | > 31.6 µM (inactive) | > 31.6 µM (inactive) | > 31.6 µM (inactive) | > 31.6 µM (inactive) | > 31.6 µM (inactive) | > 31.6 µM (inactive) | > 31.6 µM (inactive) | 24.8 µM (inactive) | > 31.6 µM (inactive) | > 100 µM (inactive) | > 31.6 µM (inactive) | > 31.6 µM (inactive) | > 31.6 µM (inactive) | 8.13 µM (inactive) | > 10 µM (inactive) | > 10 µM (inactive) |

— ChEMBL document CHEMBL1201862, “PubChem BioAssay data set” (2004)
